Literature values in patent US4127535A, “Novel dipeptides, intermediates therefor, and compositions and methods employing said dipeptides” (priority 1977, dated 1978).

Experiments:
[1] = injected directly into the brain of the rat; Belluzzi et al.
[2] = literature
[3] = tested on: partially purified brain opiate receptor sites; conditions: literature, Bradbury et al.

Substance: H-Tyr-Gly-Gly-Phe-Met-OH [methionine enkephalin]
- analgesic activity [1]: weak analgesic agent of short duration
- activity in bioassays for opiate activity [2]: very active
- binding to partially purified brain opiate receptor sites [3]: binds stereo-specifically
